Columns and labels:
[1] = Solubility vs. temperature profile experiments; type: physicochemical; conditions: within the temperature range of the experiment
[2] = Microscopical solution phase transformation experiments; type: physicochemical; conditions: room temperature; Forms IV and VI compared

thermodynamic relationship of the two forms [1]: monotropically related
Structure (SMILES): Cc1ccc(-n2nc(C(C)(C)C)cc2NC(=O)Nc2ccc(OCCN3CCOCC3)c3ccccc23)cc1 [Form VI, 1-(5-tert-butyl-2-p-tolyl-2H-pyrazol-3-yl)-3-[4-(2-morpholin-4-yl-ethoxy)-naphthalen-1-yl]-urea]
thermodynamic stability relative to Form IV ([1]; Forms IV and VI compared): more thermodynamically stable relative to Form IV | thermodynamic stability relative to Form IV [2]: more thermodynamically stable at room temperature relative to Form IV

From patent publication US7091340B2, “Polymorphs” (Boehringer Ingelheim Pharmaceuticals, Inc., priority 2003, dated 2006)
